Source: patent US20250177392A1, “BROAD SPECTRUM INHIBITORS OF CYTOMEGALOVIRUS” (MICROBIOTIX, INC., priority 2022, published 2025)

Experiments:
Type in all cases: cell-based, Human cytomegalovirus
[1] = system: CMV strains AD169, TB40/E^Flag-YFP, Towne, and TR; test: CMV infection assay, panel of strains in fibroblasts; settings: Human betaherpesvirus 5, AD169, Fibroblast, read-out: IC50 values ranging
Procedure: HCMV strains AD169 (A), TB40/E Flag YFP (B), Towne (C and G), TR (D and F), Merlin (E), and TB40/E (H) infection of NHDF cells pre-treated with DMSO and 0, 1, 5, or 20 μM MBX-4992 or MBXC-4336, respectively, were assessed at 24 hpi based on IE1 expression by anti-IE1 immunostain. TB40/E (I) (MOI 0.25) and AD169^R (J) (MOI 0.25) infection of HTR-svNeo cells treated with DMSO and 0, 1, 5, or 20 μM MBX-4992 were assessed at 24 hpi based on IE1 expression by anti-IE1 immunostain. The % infection was determined using DMSO-treated as 100% infection. The error bars represent values in triplicate. Statistical tests were performed using ordinary one-way ANOVA with multiple comparisons to DMSO treated cells as a control and a Dunnett's post-test *, p<0.05; **, p<0.01; ****, p<0.0001.
Fibroblasts and ARPE-19 cells (10^4) were plated in 96-well plates (Greiner, Monroe, NC). […] At 18 hours post infection (hpi) cells were stained using a rabbit anti-IE1 antibody followed by an anti-rabbit Alexa 647 and measured using a Celigo Cytometer (Parsons et al., Antiviral Res., 193:105124 (2021); Stein et al., Nat. Commun., 10:2699 (2019)). Using the DMSO treated cells as 100% infection, the percent infection of the NAPA compound-treated cells was determined. […]

HCMV GDGr K17 (GCV^R) = test: Herpes virus panel neutralization, GCV-resistant HCMV
Procedure: To determine the specificity of MBX-4992, additional neutralization experiments were conducted using a panel of herpes viruses performed in the presence of MBX-4992. […] Collectively, the antiviral activity of MBX-4992 is equivalent to that of GCV indicating specific inhibition of CMV replication.

AD169^R = test: Virus pre-incubation / washout study; settings: virus pre-incubated, compound washed out; MBX-4992 10 μM, heparin 50 μg/ml
Procedure: (B) Based on the schematic, AD169^R (MOI 0.2) was pre-incubated with DMSO, MBX-4992, or heparin for one hour before being added to NHDF cells. Virus/compound mix was washed out after 30 minutes as indicated and either unchanged or replaced with media containing DMSO, MBX-4992, or heparin. Virus infection was quantified at 24 hpi GFP fluorescence. Percent infection was normalized to untreated cells.
NHDF cells (10^4) plated overnight in a 96-well plate were incubated at 4° C. for 30 minutes with AD169^R CMV virus pretreated with MBX-4992 (10 μM), Heparin (50 μg/mL) or DMSO for 1 hour at room temperature (in triplicate). For 2/3rd of the samples, media was aspirated and half of the wells received DMSO media, regardless of which drug the virus was exposed to, or MBX-4992 (10 μM), or Heparin (50 μg/mL) overnight. At 18 hpi, the cells were fixed with 4% paraformaldehyde, stained with a rabbit anti-IE1 antibody followed by an anti-rabbit Alexa 647, and analyzed using the Celigo cytometer. The DMSO condition that was not aspirated post binding was set as 100% infection.
To further characterize the mechanism of action, pre-incubation/washout studies were performed using AD169^R and MBX-4992. […] At 18 hpi, cells were immunostained with an anti-IE1 antibody as a readout for infection and quantified using a Celigo cytometer. […]

TB40/E = test: Plaque assay, MBX-4992 and ganciclovir alone and in combination; settings: ARPE-19 and NHDF cells, 10 dpi; MBX-4992 1-20 μM, ganciclovir 2.5 μM
Procedure: At 10 day post-infection, representative whole well images of plaques >10,000 μm^2 (A and B) were quantified based on GFP fluorescence intensity and calculated relative to DMSO controls (C and D). Statistical tests were performed using ordinary one-way ANOVA with multiple comparisons to DMSO treated cells as a control and a Dunnett's post-test. *, p<0.05; **, p<0.01; ***, p<0.001; ****, p<0.0001.
At 10 days post-infection, representative whole well images of plaques >10,000 μm^2 (A and B) were quantified based on GFP fluorescence intensity and calculated relative to DMSO controls (C and D).

## Cc1nc(Nc2ccc(NC(=O)c3ccco3)cc2)cc(N2CCCC2)n1 [MBX-4992]
[1]
  IC50: 500 to 8000 nM
HCMV GDGr K17 (GCV^R); HCMV GDGr K17 (GCV^R)
  SI: >83
HCMV GDGr K17 (GCV^R); Human betaherpesvirus 5
  IC50: 1800 nM
AD169^R
  decrease of infection after washing out: ~25%
TB40/E
  viral plaques >10,000 μm^2, single drug: decreased
